4 molecules from patent US20250262167A1, “COMPOUNDS, TARGETS AND PATHWAYS FOR MACROPHAGE MODULATION” (Massachusetts Institute of Technology, priority 2020, published 2025) can be followed below.

Where a name gives a salt, the structure may show the parent alone.

Assay [1] relates to hMDMs differentiated into M1 by IFNγ plus TNFα. Put plainly: Reprogramming screen and dosage response on M1-like differentiated macrophages. The format is cell-based, human. Particulars: Homo sapiens, Macrophage, 24 h; M2-activating compounds on M1-like macrophages (IFNγ plus TNFα); EC = concentration reaching Z-score cutoff.
Method: Data were summarized from 3 independent experiments.
(§1) Human macrophages were seeded into optical 384-well plates. Sixteen hours later, medium in M1 plates were replaced by M1 differentiating medium (complete RPMI with 50 ng/mL IFNγ and 50 ng/mL TNFα) and medium in M2 plates by M2 differentiating medium (complete RPMI with 5 ng/mL IL-4 and 5 ng/mL IL-13). After 24 hrs cell differentiation, M1 plates (M1 macrophages) and M2 plates (M2 macrophages) were treated with M2-activating compounds and M1-activating compounds respectively for 24 hrs. Two independent experiments were performed with or without replacing differentiating medium right before treatment. Cell imaging and analysis were performed as indicated above.
To investigate whether the identified compounds could reprogram or reactivate macrophages after M1- or M2-like differentiation, we rescreened the hits on M1- or M2-activated macrophages. hMDMs were activated into M2-like macrophages by IL-4 plus IL-13 or M1-like macrophages by IFNγ plus TNFα. […] 24 hours later, cell images were taken and cell shapes were quantified.
(§2) We also rescreened the hits on differentiated macrophages in the presence of differentiating cytokines: either IL-4 plus IL-13 or IFNγ plus TNFα.
Assay [2] relates to M1-like and M2-like differentiated hMDMs. Put plainly: RNA-seq of differentiated macrophages reprogrammed by compounds. Particulars: compound at EC, 24 hours. The format is cell-based, human. Here is the method: FIGS. 4A-4F show reprogramming of differentiated macrophages by selected compounds. […] Controls include two differentiated M1 and M2 macrophages, M2 macrophages treated with IFNγ and M1 macrophages treated with IL-4. Gene expression in each sample was measured by RNA-seq separately. […] FIG. 4D show network of GO enriched terms using BiNGO on top 10% central hubs genes (n=1255) of macrophage activation network. Node color and size represent the FDR values of enriched GO terms. […] Shared (FIG. 4E) and unique pathways (FIG. 4F) are shown. Compound targets and FDA-approval information are indicated. […]
Differentially expressed genes were annotated using online functional enrichment analysis tool DAVID (http://david.ncifcrf.gov/). […] To quantify the levels of RNA transcripts, total RNA was extracted from various cells and reverse transcribed by TaqMan® Reverse Transcription Reagents Kit (ABI Catalog No. N8080234), followed by amplification with Sybr Green Master Mix (Roche Catalog No. 04707516001) with specific primers (Table 4) and detected by Roche LightCycler 480. […]
To determine the central hubs of all stimulation conditions by compounds (refer to FIG. 4) reflecting the core macrophage activation network, transcriptional interactions between genes were first determined by ARACNe based on the perturbed transcriptional profiles of 34 compounds as well as IFNγ and IL4 controls. […]

In assay [3] the test system is ImKCs (immortalized line of mouse Kupffer cells). The assay can be described thus: Seahorse ECAR/OCR (glycolysis, OxPhos) in ImKCs. The following applies: ImKCs, S1P 3 mM, 24 hrs. The format is cell-based. Here is the method: Shown are representative data of three independent experiments. […] Data are presented as the mean±sd (n=4).
FIGS. 21A-21I show DPI stimulates glycolysis through GPR3 and β-arrestin2. FIGS. 21A-21B show DPI-stimulated glycolysis is independent of the NOX activity. […] The mean fluorescence intensity (MFI) of 2-NBDG in cells was measured by flow cytometry and normalized to DMSO controls of wildtype BMDMs. Data are presented as the mean±sd (n=3). […] ImKCs were transfected with siRNA specific for Gpr3 or a scramble siRNA as control. […] Data are presented as the mean±sd (n=4). […] Data are presented as the mean±sd (n=12). […] Abbr2^−/− ImKC were constructed by CRISPR-Cas9-mediated gene editing. […] Data are presented as the mean±sd (n=4). […] ImKCs were transfected with Abbr2-GFP fusion gene and stimulated with DMSO, DPI (50 nM), or S1P (3 mM). The GFP signal was captured with a TIRF microscope at indicated time points. Shown are representative data of GFP signal at 0 min and 10 min, and merged signal from three independent experiments.
Specific parameters for glycolytic capacity and glycolytic reserve were calculated and summarized based on two independent experiments. […] The GFP signal was captured with a TIRF microscope at indicated time points. Shown are representative data of GFP signal at 0 min and 10 min, and the merged signal from three independent experiments.
OCR and ECAR were measured in isolated tissues or cultured ImKCs using the Seahorse XFe Extracellular Flux Analyzer (Agilent). For tissue respiration assays, 1.0 mg adipose tissue was dissected from inguinal WAT depots by using a surgical biopsy instrument (Integra Miltex Standard Biopsy Punches, Thermo Fisher) and placed into XF96 Islet Capture Microplates and pre-incubated with XF assay medium with pH value at 7.4. XF assay medium supplemented with 1 mM sodium pyruvate, 2 mM GlutaMax™-I, and 25 mM glucose. Isolated MDMs or Kupffer cells were subjected to a mitochondrial stress test by adding oligomycin (2 μM) followed by carbonyl cyanide 4-(trifluoromethoxy), phenylhydrazone (FCCP, 5 μM), and antimycin (1 μM). For glucose stress assay and ECAR measurement, XF assay medium was supplemented only with GlutaMax™-I. Tissue or cells were subjected to a glucose stress test by adding highly concentrated glucose (for tissue, 25 mM; for cells, 10 mM), followed by adding oligomycin (5 μM), FCCP (5 μM), and 2-DG (50 mM). Cells were seeded in culture dishes, and the medium was changed after 6 hours with serum-free DMEM. Cells were incubated for 12-16 hours, and the culture medium was then collected for measurement of glucose and lactate concentrations. Glucose levels were determined using a glucose (GO) assay kit (Sigma). Glucose consumption was the difference in glucose concentration when compared with DMEM. Lactate levels were determined using a lactate assay kit (Eton Bioscience).
DPI is an agonist of GPR3 and an inhibitor of […] oxidase (NOX). We first determined the requirement of NOX in DPI-stimulated glycolysis.
To determine the requirement of GPR3, we knocked down GPR3 by siRNA (siGpr3) in ImKCs.
β-arrestin2, encoded by Arrb2, has been reported to bind to GPR3 and is required for GPR3 signaling. To investigate the requirement of 0-arrestin2 in DPI-stimulated glycolysis, we constructed Arrb2^−/− ImKCs using CRISPR-Cas9 mediated gene editing (FIG. 28F).

Assay [4] concerns hMDMs differentiated into M2 by IL-4 plus IL-13. Put plainly: Reprogramming screen and dosage response on M2-like differentiated macrophages.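 Note: human monocyte-derived macrophages held 24 h in 5 ng/mL IL-4 plus IL-13 before 24 h compound exposure, with cell shape measured from images in 384-well plates.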
Method: Shown are comparison of Z-scores between 5 μM or 10 μM of compounds. […] Shown are comparison of Z-scores between 5 μM or 10 μM of compounds. […] EC and fitness of 21 M1-polarizing (triangle) and 19 M2-polarizing compounds (circle) were calculated by the Michaelis-Menten equation and plotted. Data were summarized from 3 independent experiments.
as §1
To investigate whether the identified compounds could reprogram or reactivate macrophages after M1- or M2-like differentiation, we rescreened the hits on M1- or M2-activated macrophages. hMDMs were activated into M2-like macrophages by IL-4 plus IL-13 or M1-like macrophages by IFNγ plus TNFα. After removing the differentiating cytokines, M2-like macrophages were treated with each of the 166 M1-activating compounds and M1-like macrophages were treated with each of the 180 M2-activating compounds at a final concentration of either 5 μM and 10 μM. 24 hours later, cell images were taken and cell shapes were quantified. […] Dosage responses were carried out with 40 commercial available compounds (21 M1-activating and 19 M2-activating) on polarized macrophages.
as §2
Another assay relates to M0 macrophages (hMDMs). Put plainly: Dosage response of cell shape change on M0 macrophages. The format is cell-based, human. The following applies: M0 macrophages.
For a further assay, the system named is hMDMs. Put plainly: Flow cytometry of M1 markers (CD80, CD86) and M2 markers (CD206, CD163) in hMDMs. The format is cell-based, human. The following applies: 24 hrs. As for the experimental part:
FIGS. 7A-7B show morphology and phenotypes of activated macrophages. […] The resulting macrophages were polarized to M1 by IFNγ or M2 by IL4. Then, M1 macrophages were treated with M2-type compound bosutinib ([…]) for 24 hrs, and M2 macrophages were treated with M1-type compound thiostrepton ([…]) for 24 hrs. F-actin was stained and images were acquired by fluorescent microscopy with 60× objective. Cell nuclei are stained with DAPI. Representative data were shown from two independent experiments. […] Shown are the representative staining profiles from three independent experiments. The numbers show mean fluorescent intensity (MFI)+/−standard error of the mean (SEM) for n=3 samples per group.
FIGS. 9A-9C show comparison of the differentially expressed genes induced by selected compounds (FIG. 9A), ligands for novel pathways (FIG. 9B), and controls (IL-4 and IFNγ). […] Shown are the changes of the relative mean fluorescence intensity (MFI) to controls. 0.2 refers to 20% MFI increase.
B6 mice were purchased from the Jackson Laboratory and maintained in the animal facility at the Massachusetts Institute of Technology (MIT). NSG mice were purchased from the Jackson Laboratory and maintained under specific pathogen-free conditions in the animal facilities at MIT. […] The data were analyzed by FlowJo. […]

Assay [5] has as its system human monocyte-derived macrophages (hMDMs). The assay can be described thus: High throughput phenotypic screen of macrophage activation (cell shape, Z-score).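 Note: phalloidin and DAPI stained hMDMs imaged by high-content microscopy, cell eccentricity compared with DMSO control by T-test, round morphology scored negative, elongated positive.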 The format is cell-based. Particulars: known M1-/M2-activating stimuli.
Method: The Z-score was calculated by T-test to measure the difference of cell morphology between treatment and control. Stimuli had negative Z-scores when induced cells to round morphology and positive scores when induced cells to elongated morphology. […] Equally mixed human monocytes isolated from fresh blood of 4 healthy donors were cultured in vitro with 50 ng/mL M-CSF for 7 days. hMDMs were trypsinized and plated on 384-well plates (5000 cells/well in 50 μL). Cells were recovered in 10 ng/mL M-CSF for 16 hrs and then treated with compounds for 24 hrs. Cells were washed, fixed and stained with Phalloidin and DAPI. The plates were scanned with a high-content microscope with six-fields per well to quantify the cell number and cell morphology. […] The cell eccentricity was calculated to measure the cell morphology. The Z-score was calculated by T-test to measure the difference in cell morphologies between each compound and DMSO control.
Cells were treated with a library of over 4000 individual compounds or drugs at the final concentration of 20 μM using the CyBi-Well simultaneous pipettor (CyBio). […] After 24 hr incubation, supernatants were removed using the microplate washer (Bioteck) and cells were fixed by adding 50 μL 16% paraformaldehyde (Thermo Scientific) with the dispenser for 20 minutes. Cells were then washed with 50 μL 1×PBS twice and incubated for 20 minutes with NucBlue and AF746 Phalloidin (Invitrogen) to stain nucleus and cytoskeleton. Cells were then washed with 50 μL 1×PBS twice and maintained in PBS for the image acquirement. Plates were read in the Opera Phenix high content screening system (PerkinElmer) to photograph cells using 20× objective in 2 fluorescent channels (Blue and FarRed). A total of 6 different fields in each well and an average of 1,000 cells were imaged per well. CellProfiler was used to identify each cell by overlapping signals from its nucleus and cytoskeleton, and calculate the eccentricity as the parameter to measure the cell morphology. The Z-score was calculated by T-test to measure the difference of cell morphology between each treatment and control. For each row of the 384-well plate, total 4 wells with first and last two columns treated with the same concentration of DMSO were combined as the control for the other 20 treatment wells in that row. In the meantime, classic M1 and M2 stimuli were added to generate the gold-standard Z-score cutoffs with M1 or M2 activation. Classic M1 stimuli include LPS (100 ng/mL), IFNγ (50 ng/mL, Peprotech), TNFα (50 ng/mL, Peprotech), or IFNγ plus TNFα. Classic M2 stimuli include IL-10 (10 ng/mL, Peprotech), IL-4 (10 ng/mL, Peprotech), or IL-13 (5 ng/mL, Peprotech).

Consider `C(=N\NC1=NCCN1)/c1c2ccccc2c(/C=N/NC2=NCCN2)c2ccccc12` [Bisantrene dihydrochloride], for which the EC (M2 Z-score cutoff) in assay [1] is 1.98 µM. Further, the unique pathway perturbed entry in assay [2] is recorded as “perturbed the pathway of DNA topological change”.

`CCCCCCCCCCCCC/C=C/[C@@H](O)[C@@H](N)COP(=O)(O)O` [S1P, sphingosine-1-phosphate]: in assay [3], the glycolysis entry is on record as “significant increase”.

As to `Nc1ccccc1NC(=O)c1ccc(CNC(=O)OCc2cccnc2)cc1` [MS275], the EC was 0.811 µM in assay [4] (M1-activating compounds on M2-like macrophages (IL-4 plus IL-13), EC = concentration reaching Z-score cutoff) and 1.05 µM in the assay with M0 macrophages (hMDMs) (EC = concentration inducing cell morphology changes to reach the M1 or M2 Z-score cutoff, Michaelis-Menten fit, 3 independent experiments, unit of the source corrected). Moreover, the Category entry (in assay [4] (differentiated macrophages); in the assay with M0 macrophages (hMDMs)) was “M1 (−4 for M1-activated macrophages)” each time. Moreover, the “Max absolute Z-value” in the assay on M0 macrophages (hMDMs) (Max Z-score from Michaelis-Menten equation, negative = round, positive = elongated) is on record as −7.993. In assay [2], the unique pathway perturbed entry is “perturbed the pathway of chromatin assembly”.

Turning to IFNγ: classic M1 stimulus, in the assay on hMDMs, the “expression of M1 markers CD80 and CD86” value was “up-regulated”; the “expression of M2 markers CD206 and CD163” value is “suppressed”. Also, the cell shape induced result in assay [5] is reported as “round shape”.
